Test results as given in patent US12180160B1, “1-(naphthalen-2-yloxy)-3-(piperidin-1-yl)propan-2-ol as an eco-friendly insecticidal agent against Spodoptera littoralis (boisd.)” (priority 2023, dated 2024).
Converted amounts (≈) assume the structure as drawn.

Tested on: Spodoptera littoralis larvae (2nd and 4th instars)
Experiment: Insecticidal bioassay screening (castor leaf dip)
Type: in vivo
Conditions: for Toxic ratio: 72 h, fenoxycarb's LC50/compound's LC50 × 100; for LC50 (ppm): after 72 h of treatment
Protocol: Five concentrations (200, 100, 50, 25, 12.5 ppm) were designed for this synthetic compound and the reference fenoxycarb compound as the dynamic ingredients based on ppm via diluting the commercial formulation.
In this experiment, castor leaves are immersed in each of the previously prepared concentrations of the components for 10 seconds and then left to dry for 60 minutes. Larvae of the second and fourth instars of each checked strain are prepared with treated leaves in gauze-covered glass containers for 72 hrs. An untreated control is made in which leaves are dipped in triton x-100 and distilled water only. Then the preserved leaves were removed & fresh, untreated leaves were provided for 72 hours. Three replicates (10 larvae each) were checked for each concentration. Daily inspection was carried out for all treatments and mortality percentages were recorded 3 days (72 hours) after treatment. The average mortality percentage was corrected employing Abbott's formula. The corrected mortality rate for each of the previously synthesized compounds is statistically calculated according to Finney (1970). Through this rate, the corresponding concentration test lines (LDP lines) are assessed. Fifty and ninety percent mortality are determined, and the regression values for the checked products were previously evaluated.

Row | SMILES | Toxic ratio (2nd instar larvae) | Toxic ratio (4th instar larvae) | LC50 (Spodoptera littoralis, foliar) | morphological effect on Spodoptera littoralis (FIGURE) (after administration of the compound) | activity against Spodoptera littoralis (in words) (compared with reference insecticide fenoxycarb) | LC50 (ppm) (2nd instar larvae of S. littoralis) | LC50 (ppm) (4th instar larvae of S. littoralis)
1 | OC(COc1ccc2ccccc2c1)CN1CCCCC1 (stereo not drawn) [Compound 1, 1-(naphthalen-2-yloxy)-3-(piperidin-1-yl)propan-2-ol] | 10.9 | 59.8 | 25 µg/mL (≈ 87.7 µM) | morphological malformations | active against Spodoptera littoralis | – | –
2 | CCOC(=O)NCCOc1ccc(Oc2ccccc2)cc1 [Fenoxycarb, reference compound] | 100 | 1 | – | – | – | 2.73 ppm | 43.231 ppm
